Experimental data published in US20140140931A1, “ANTIOXIDANT, NEUROPROTECTIVE AND ANTINEOPLASTIC NANOPARTICLES COMPRISING A THERAPEUTIC AGENT ON AN AMPHIPHILIC SPACER OR AN AMPHIPHILIC POLYMER” (CEDARS-SINAI MEDICAL CENTER, priority 2011, published 2014).

Columns and labels:
P-glycoprotein (Pgp) = details: cited from earlier work
[1] = cited from earlier work
[2] = 30 minutes after administration; cited from earlier work
[3] = system: intracranial U87 MG tumor xenograft; assay: Survival study of mice with intracranial U87 MG GBM xenograft; format: in vivo, athymic nu/nu mice; details: i.v. every three days for 4 weeks from day 7 (16 mg/kg/day CPT-TEG-ALA)
Procedure: All animal studies were performed according to Cedars-Sinai Medical Center Institutional Animal Care and Use Committee protocols. Female 6- to 8-week-old athymic nu/nu mice (Charles River Laboratories) were used for all experiments. […] For Intracranial tumor model, mice underwent intracranial stereotactic implantation of U87 MG cells. Mice were anesthetized using a ketamine and dexmedetomidine combination as a single intraperitoneal injection. 10^5 U87 MG cells suspended in 2 μl of PBS were implanted in the right frontal region of the brain using a Hamilton syringe. The animals received intraperitoneal injection of atipamezole to reverse the dexmedetomidine effect. A single subcutaneous injection of buprenorphine was administered for pain relief.
Two perpendicular diameters of the tumor are measured, and the volume is calculated according to the equation: V (mm^3)=L (mm)×W^2 (mm^2)/2, where L is the longest diameter and W is the diameter perpendicular to L. In the intracranial model, the animals (n=8) received intravenous (tail vein) injection of nanoprodrugs (16 mg/kg/day CPT-TEG-ALA) beginning 7 days after tumor implantation every three days for 4 weeks. […] As control, animals received injection of irinotecan, α-tocopherol nanosuspension, and saline
For mouse survival study, log-rank statistical analysis was performed. […]

Compound	Pgp substrate (P-glycoprotein (Pgp))	Solubility in water [1]	Lactone form hydrolyzed to an open ring [2] [%]	Median survival time [3] [days]
CCc1c2c(nc3ccc(O)cc13)-c1cc3c(c(=O)n1C2)COC(=O)[C@]3(O)CC [SN38]	substrates	–	–	–
CC[C@@]1(O)C(=O)OCc2c1cc1n(c2=O)Cc2cc3ccccc3nc2-1 [camptothecin, (S)-4-ethyl-4-hydroxy-1H-pyran-[3′,4′:6, 7]indolizino[1,2-b]quinoline-3,14(4H, 12H)-dione]	–	essentially insoluble in water	50	–
CCc1c2c(nc3ccc(OC(=O)N4CCC(N5CCCCC5)CC4)cc13)-c1cc3c(c(=O)n1C2)COC(=O)[C@]3(O)CC [irinotecan]	substrates	–	–	41.0
